As usually defined, the melting point is the temperature, or range, at which the solid turns liquid.

Consider `CC(C)(c1ccccc1)C(C)(C)c1ccccc1`, for which the melting point lay in the range of 90 to 110 °C. For the molecule `CCCc1ccc(OCC(=O)N2CCN(C(=O)COc3ccc(CCC)cc3OC)CC2)c(OC)c1`, the melting point was determined as 128 °C. To `O=Cc1cc(F)ccc1[N+](=O)[O-]` belongs 94.5 °C. Next, `CCCCCCCC/C=C\CCCCCCCCCCCC(=O)O`: 33.5 °C.

Take `O=C(O)C(F)F`: the melting point is -1 °C.

Turning to `Cc1c(-c2ccccc2)c2ccccc2n1C`, the melting point came out at 111 °C. Turning to `O=S(=O)(O)CCNC1CCCCC1`, the melting point came out at 320 °C. To `O=[N+]([O-])c1ccc(Br)c(Cl)c1` belongs 61 °C; to `COC(=O)c1ccc(C(=O)OC)nc1`, 163 to 164 °C.

Molecule `CC(=O)CC(=O)O` yielded a melting point of 36.5 °C. To `Cc1cccn2c(=O)c(C(=O)c3ccccc3)cnc12` belongs 146 to 147 °C; to `O=C(CBr)c1cc2ccccc2o1`, 89 to 90 °C. `Cc1noc(C)c1-c1nc(CCl)no1` showed a melting point of 88 to 90 °C. Consider `ClCCCc1ccccc1`, for which the melting point was -27 °C. `O=C1CCCN1c1ccc(Br)cc1` came in with a melting point of 98 to 101 °C. In the case of `Oc1cc(C(F)(F)F)nc2cc(Cl)cc(Cl)c12`, the melting point came out at 230 °C.

Molecule `COc1ccc(/C=C(/C#N)c2nc3ccccc3c(=O)[nH]2)cc1` gave a melting point of 280 °C. On to `Cc1ccc(S(C)(=O)=O)cc1`, for which the melting point was 88 °C. The molecule `NC(=O)c1cnn(CCO)c1N` displayed a melting point of 239 °C. `Cc1ccc(C)c(O)c1C` showed a melting point of 58 °C. For `Cc1ccnc(Nc2nc3ccccc3[nH]2)c1`, the melting point was in the range of 279 to 281 °C. To `Cc1cnnc2c1-c1nonc1CC2` belongs 155 to 158 °C; to `N#Cc1cccc(C(=O)Cc2cccc(Oc3ccccc3)c2)c1`, 63.7 to 65.5 °C; to `O=C1c2cc3ccccc3cc2C(=O)c2cc3ccccc3cc21`, 391 to 394 °C. Molecule `OCC1OC(OC2OC(CO)C(O)C(O)C2O)C(O)C(O)C1O` (stereo not given) came in with a melting point of 203 °C. Next, `O=C1NN(c2ccccc2)C(=O)C1c1ccccc1` (stereo not given): 233 °C; `Clc1ncnc2c1cnn2-c1ccccc1`: 126 to 128 °C; `NC(=S)NN=C1C2CCCC1C1(O)CCCCC1C2c1ccccc1` (stereo not given): 205 °C. Next, `COc1ccc(SCC(=O)O)cc1OC`: 102 °C; `CC(C)C[C@H](N)[C@@H](O)CC(=O)O`: 209 °C; `O=C(c1ccc(C(F)(F)F)cc1)c1cccc(C(F)(F)F)c1`: 94 to 98 °C.

The molecule `FC(F)(F)c1cccc(C(F)(F)F)n1` showed a melting point of 57 °C.

The molecule `O=C(Cl)CCCCl` yielded a melting point of -47 °C. As to `O=C(CCl)Nc1cccc(C(F)(F)F)c1`, the melting point fell in the range of 62.5 to 64 °C. Next, `CC12CCC(O)CC1CCC1C2C(O)CC2(C)C1CCC2(O)C(=O)CO` (stereo not given): 244 °C. To `FC(F)(F)C1(F)C(F)(F)C(F)(F)C(F)(F)C(F)(F)C1(F)F` belongs -37 °C. Next, `CCCCCCCCCCCCCC(=O)CC`: 43 °C; `CCN(CC)c1ccc(/C=C2\CC/C(=C\c3ccc(N(CC)CC)cc3)C2=O)cc1`: 186 to 189 °C; `O=Cc1csc2ccc(Cl)cc12`: 109 to 111 °C. Regarding `CC(=O)c1ccc2c(c1)OCO2`, the melting point is 86 to 89 °C. Next, `CC(=O)c1ccc(NC(N)=S)cc1`: 215 °C; `Cn1c(=S)sc2ccccc21`: 90 °C.

Consider `CN(C)c1ccc(P(=O)(c2ccc(N(C)C)cc2)c2ccc(N(C)C)cc2)cc1`, for which the melting point is 275 to 280 °C. Next, `CCOc1ccc(C=CC(=O)O)cc1`: 195 to 197 °C; `COc1c(Br)ccc2c1C(=NNc1ccc([N+](=O)[O-])cc1[N+](=O)[O-])C2`: 309 to 310 °C. In the case of `BrCc1cccc2cccnc12`, the melting point is 81 to 82 °C.

In turn, `CC(CN1CC(=O)NC(=O)C1)N1CC(=O)NC(=O)C1` (stereo not given) came in with a melting point of 238 °C. Next, `COc1ccccc1-c1ccc(C=C(C(C)=O)C(C)=O)o1`: 145 to 146 °C; `CCOC(=O)C1=NN(c2ccccc2)C(=O)C1=CC1C(=O)N(c2ccccc2)N=C1C(=O)OCC` (stereo not given): 179 to 180 °C. Next, `O=C1NC(=O)C(Cc2cccc(CC3C(=O)NC(=O)NC3=O)c2)C(=O)N1`: 272 °C; `CC(Cl)OC(=O)Cl` (stereo not given): -65 °C; `Cc1onc(-c2c(Cl)cccc2Cl)c1CC#N`: 75 to 78 °C.

As for `O=C(Nc1nc(-c2ccc(Br)cc2)cs1)c1ccccc1`, the melting point is 115 °C.

Molecule `O=[N+]([O-])c1ccc(Br)cc1C(F)(F)F` displayed a melting point of 34 °C. As for `COc1ccc(CC(=O)O)c(OC)c1`, the melting point came to 110 °C. Regarding `CCCOC(=O)C1=C(C)NC(C)=C(C(=O)OCCC)C1c1ccccc1`, the melting point came out at 119 °C. The molecule `Cc1c(O)cc2c(c1C)OC(C)(CCCC(C)CCCC(C)CCCC(C)C)CC2` (stereo not given) yielded a melting point of -3 °C.

Turning to `Cc1c(NC(C)C)c(=O)n(-c2ccccc2)n1C`, the melting point was 80 °C. In turn, `CCCC(=O)CCC` yielded a melting point of -33 °C. Consider `O=C1CCCC2Cc3ccccc3C(=O)C12` (stereo not given), for which the melting point was found to be 79 °C.

As to `CCc1ccccc1NC(=O)c1cccc2ccccc12`, the melting point was 175 °C. To `Cc1cc(C(=O)O)cc(Cl)c1N` belongs 274 to 277 °C. With `COc1ccc([N+](=O)[O-])c(O)c1`, the melting point fell in the range of 90 to 94 °C.

With `ClC1=C(Cl)C2(Cl)C3C(Cl)OC(Cl)C3C1(Cl)C2(Cl)Cl` (stereo not given), the melting point worked out at 121 °C. Next, `Cc1ccc(C(=O)c2noc(-c3ccc([N+](=O)[O-])cc3)c2S(=O)(=O)c2ccccc2)cc1`: 170 °C; `CCOC(=O)C(Nc1cccc(NC(C(=O)OCC)C(=O)OCC)c1)C(=O)OCC`: 79 °C.

As for `CC12CCC(c3cn(-c4ccccc4)nc31)C2(C)C` (stereo not given), the melting point was 125 °C. To `CC(=O)C1(O)C(O)CC2C3CCC4=CC(=O)CCC4(C)C3CCC21C` (stereo not given) belongs 225 °C; to `N#CC(N)C(N)=O` (stereo not given), 120 to 124 °C. Next, `N=C(N)NC(=O)Cc1c(Cl)cccc1Cl`: 226 °C. Next, `Nc1ccc2cc3ccc(N)cc3nc2c1`: 285 °C; `Cn1ccc2cc(Br)ccc21`: 43 to 44 °C; `CCCCCC=O`: -56 °C. The molecule `O=[N+]([O-])c1ccc2c(c1)CCN2S(=O)(=O)c1ccccc1` gave a melting point of 128 to 130 °C. On to `C=CC(=O)OCCN(CC)CC`, for which the melting point was -60 °C.

`Cc1ccc(Cl)c(C(=O)O)c1` displayed a melting point of 148 to 150 °C. Regarding `CCCCCCS(=O)(=O)O`, the melting point was 16.1 °C. In turn, `Fc1ccc(CN2CCNCC2)cc1` came in with a melting point of 64 to 65 °C. Regarding `COC(=O)C(C)Oc1ccc(Oc2ncc(C(F)(F)F)cc2Cl)cc1` (stereo not given), the melting point turned out to be 56 °C. To `C=CN1CCCCCC1=O` belongs 34 °C; to `N#Cc1c(C(F)(F)F)cc(Nc2cccc([N+](=O)[O-])c2)nc1Cl`, 276 to 279 °C; to `COc1ccc(Nc2ccc(OC)cc2)cc1`, 102 °C. Next, `CCCCCCCCCCC(C)C`: -26 °C.

Molecule `O=c1[nH]cc(Br)c(=O)[nH]1` came in with a melting point of 310 °C. To `OCc1ccccc1C(c1ccc(O)cc1)c1ccc(O)cc1` belongs 202 °C.

For the molecule `Nc1cnccc1C(F)(F)F`, the melting point was 55 to 56 °C. In the case of `COC(CN1CCN(CC(O)C(OC)c2ccccc2)CC1)c1ccccc1` (stereo not given), the melting point was 83 °C. Regarding `CSc1nc2cc(N=Cc3ccccc3Cl)ccc2[nH]1`, the melting point is 229 to 231 °C. Next, `Cc1cc(N=Nc2ccccc2)c(C(C)C)cc1N=Nc1ccccc1`: 108 °C. To `O=C(c1ccc(O)cc1)c1ccccc1F` belongs 117 °C; to `Clc1cc2c(cc1Cl)Oc1c(Cl)c(Cl)cc(Cl)c1O2`, 206 °C. On to `O=C(O)C1c2ccccc2Oc2ccccc21`, for which the melting point stood at 217 °C. The molecule `CC(C)(C)[Si](C)(C)ON` came in with a melting point of 64 °C. To `O=C(O)c1cc(Br)c(Br)s1` belongs 230 °C; to `NC(C(=O)O)C1=CCC=CC1` (stereo not given), 260 °C. To `Cc1ccc([N+](=O)[O-])c(N)c1` belongs 108 °C; to `O=C(O)/C(=C/c1ccccc1[N+](=O)[O-])c1ccc([N+](=O)[O-])cc1`, 184 °C; to `CCCCNC(=O)c1ccc(Cl)cc1O`, 91.5 °C.

On to `CN1C(=O)c2ccc([N+](=O)[O-])cc2C1=O`, for which the melting point was in the range of 178 to 179 °C. Next, `CCOC(=O)C(C#N)=C1SCCS1`: 106 °C. To `Nc1ccc(-n2cnc(Cl)c2Cl)cc1` belongs 104 to 105 °C; to `O=C1CCCCCCC1`, 40.5 °C; to `Nc1nn2c(-c3ccccc3)cc(=O)[nH]c2c1/N=N/c1c(Br)cc(Br)cc1Br`, 316 °C. `COc1coc(CSP(=O)(OC)OC)cc1=O` yielded a melting point of 96 °C. To `Brc1ccc2ncsc2c1` belongs 53 to 54 °C; to `O=C1c2ccccc2C(=O)C1C(=O)C(c1ccccc1)c1ccc(Cl)cc1` (stereo not given), 140 °C.

The molecule `Cn1nc(-c2ccccc2)cc1N` had a melting point of 132 to 135 °C.

In turn, `CCCCCCCCCCCCCC(CCCCCCCCCCCC)CCCCCCCCCCCC` displayed a melting point of 13.7 °C.

On to `CC(=O)Nc1ccc(Cl)cc1Cl`, for which the melting point came to 147 °C.

For the molecule `O=C(O)c1cc2cc([N+](=O)[O-])ccc2s1`, the melting point is 238 to 241 °C.

The values are drawn from a melting point compilation (Tetko et al.).
